Experimental data: PubChem BioAssay AID1918952 (Molecular Pharmacology Branch, DTP, NCI, 2023)

Test system: LG0703-F948-PDC complex spheroid viability
Assay: Anticancer human tumor LG0703-F948-PDC patient-derived lung adenocarcinoma cell line growth inhibition
Conditions: for IC50: curve of first compound; for viability, T/C: stronger effect = lower value
Outline: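 Complex spheroids of tumor cells with HUVEC and human MSCs, exposed to iadademstat combined with other agents. Each agent tested in half-log steps from near clinical Cmax (else 10 microM top), DMSO ≤0.25%.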

[1] = second compound 0.1 µM, first compound 0.000316 µM
[2] = second compound 0.1 µM, first compound 0.001 µM
[3] = second compound 0.1 µM, first compound 0.00316 µM
[4] = second compound 0.1 µM, first compound 0.01 µM
[5] = second compound 0.1 µM, first compound 0.0316 µM
[6] = second compound 0.1 µM, first compound 0.1 µM
[7] = second compound 0.316 µM, first compound 0.000316 µM
[8] = second compound 0.316 µM, first compound 0.001 µM
[9] = second compound 0.316 µM, first compound 0.00316 µM
[10] = second compound 0.316 µM, first compound 0.01 µM
[11] = second compound 0.316 µM, first compound 0.0316 µM
[12] = second compound 0.316 µM, first compound 0.1 µM
[13] = second compound 1 µM, first compound 0.000316 µM
[14] = second compound 1 µM, first compound 0.001 µM
[15] = second compound 1 µM, first compound 0.00316 µM
[16] = second compound 1 µM, first compound 0.01 µM
[17] = second compound 1 µM, first compound 0.0316 µM
[18] = second compound 1 µM, first compound 0.1 µM
[19] = second compound 3.16 µM, first compound 0.000316 µM
[20] = second compound 3.16 µM, first compound 0.001 µM
[21] = second compound 3.16 µM, first compound 0.00316 µM
[22] = second compound 3.16 µM, first compound 0.01 µM
[23] = second compound 3.16 µM, first compound 0.0316 µM
[24] = second compound 3.16 µM, first compound 0.1 µM
[25] = second compound 10 µM, first compound 0.000316 µM
[26] = second compound 10 µM, first compound 0.001 µM
[27] = second compound 10 µM, first compound 0.00316 µM
[28] = second compound 10 µM, first compound 0.01 µM
[29] = second compound 10 µM, first compound 0.0316 µM
[30] = second compound 10 µM, first compound 0.1 µM
[31] = second compound 0.1 µM, first compound 0.00949 µM
[32] = second compound 0.1 µM, first compound 0.03 µM
[33] = second compound 0.1 µM, first compound 0.0949 µM
[34] = second compound 0.1 µM, first compound 0.3 µM
[35] = second compound 0.1 µM, first compound 0.949 µM
[36] = second compound 0.1 µM, first compound 3 µM
[37] = second compound 0.316 µM, first compound 0.00949 µM
[38] = second compound 0.316 µM, first compound 0.03 µM
[39] = second compound 0.316 µM, first compound 0.0949 µM
[40] = second compound 0.316 µM, first compound 0.3 µM
[41] = second compound 0.316 µM, first compound 0.949 µM
[42] = second compound 0.316 µM, first compound 3 µM
[43] = second compound 1 µM, first compound 0.00949 µM
[44] = second compound 1 µM, first compound 0.03 µM
[45] = second compound 1 µM, first compound 0.0949 µM
[46] = second compound 1 µM, first compound 0.3 µM
[47] = second compound 1 µM, first compound 0.949 µM
[48] = second compound 1 µM, first compound 3 µM
[49] = second compound 3.16 µM, first compound 0.00949 µM
[50] = second compound 3.16 µM, first compound 0.03 µM
[51] = second compound 3.16 µM, first compound 0.0949 µM
[52] = second compound 3.16 µM, first compound 0.3 µM
[53] = second compound 3.16 µM, first compound 0.949 µM
[54] = second compound 3.16 µM, first compound 3 µM
[55] = second compound 10 µM, first compound 0.00949 µM
[56] = second compound 10 µM, first compound 0.03 µM
[57] = second compound 10 µM, first compound 0.0949 µM
[58] = second compound 10 µM, first compound 0.3 µM
[59] = second compound 10 µM, first compound 0.949 µM
[60] = second compound 10 µM, first compound 3 µM
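Note: spheroids exposed to agents for seven days before readout.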
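Throughout, for viability, T/C: 100% = DMSO vehicle control wells as normalization base.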

SMILES: CC(C)CC(NC(=O)C(Cc1ccccc1)NC(=O)c1cnccn1)B(O)O (stereo not given) + NC1CCC(NC2CC2c2ccccc2)CC1
- IC50 (second compound 0.1 µM): < 0.000316 µM
- IC50 (second compound 0.316 µM): < 0.000316 µM
- IC50 (second compound 1 µM): < 0.000316 µM
- IC50 (second compound 3.16 µM): < 0.000316 µM
- IC50 (second compound 10 µM): < 0.000316 µM
- viability, T/C [1]: 8.14%
- viability, T/C [2]: 0.63%
- viability, T/C [3]: 0.43%
- viability, T/C [4]: 0.05%
- viability, T/C [5]: 0.04%
- viability, T/C [6]: 0.13%
- viability, T/C [7]: 8.59%
- viability, T/C [8]: 1.33%
- viability, T/C [9]: 0.03%
- viability, T/C [10]: 0.82%
- viability, T/C [11]: 0.07%
- viability, T/C [12]: 0.11%
- viability, T/C [13]: 7.45%
- viability, T/C [14]: 0.3%
- viability, T/C [15]: 0.12%
- viability, T/C [16]: 0.06%
- viability, T/C [17]: 0.02%
- viability, T/C [18]: 0.1%
- viability, T/C [19]: 5.46%
- viability, T/C [20]: 0.14%
- viability, T/C [21]: 0.04%
- viability, T/C [22]: 0.1%
- viability, T/C [23]: 0.03%
- viability, T/C [24]: 0.12%
- viability, T/C [25]: 1.9%
- viability, T/C [26]: 0.49%
- viability, T/C [27]: 0.29%
- viability, T/C [28]: 0.18%
- viability, T/C [29]: 0.13%
- viability, T/C [30]: 0.25%

SMILES: CC(C)CC(NC(=O)CNC(=O)c1cc(Cl)ccc1Cl)B1OC(=O)CC(CC(=O)O)(C(=O)O)O1 (stereo not given) + NC1CCC(NC2CC2c2ccccc2)CC1
- IC50 (second compound 0.1 µM): 0.00454 µM
- IC50 (second compound 0.316 µM): 0.00494 µM
- IC50 (second compound 1 µM): 0.00429 µM
- IC50 (second compound 3.16 µM): 0.00305 µM
- IC50 (second compound 10 µM): 0.00198 µM
- viability, T/C [1]: 118%
- viability, T/C [2]: 95.6%
- viability, T/C [3]: 66.7%
- viability, T/C [4]: 19.8%
- viability, T/C [5]: 2.45%
- viability, T/C [6]: 0.73%
- viability, T/C [7]: 104%
- viability, T/C [8]: 102%
- viability, T/C [9]: 69.4%
- viability, T/C [10]: 19%
- viability, T/C [11]: 2.48%
- viability, T/C [12]: 0.54%
- viability, T/C [13]: 118%
- viability, T/C [14]: 115%
- viability, T/C [15]: 60.8%
- viability, T/C [16]: 17%
- viability, T/C [17]: 2.68%
- viability, T/C [18]: 1.21%
- viability, T/C [19]: 112%
- viability, T/C [20]: 127%
- viability, T/C [21]: 47.6%
- viability, T/C [22]: 13.8%
- viability, T/C [23]: 2.43%
- viability, T/C [24]: 0.36%
- viability, T/C [25]: 109%
- viability, T/C [26]: 97.7%
- viability, T/C [27]: 17.4%
- viability, T/C [28]: 6.56%
- viability, T/C [29]: 0.78%
- viability, T/C [30]: 0.48%

SMILES: Nc1ccccc1NC(=O)c1ccc(CNC(=O)OCc2cccnc2)cc1 + NC1CCC(NC2CC2c2ccccc2)CC1
- IC50 (second compound 0.1 µM): 0.118 µM
- IC50 (second compound 0.316 µM): 0.142 µM
- IC50 (second compound 1 µM): 0.127 µM
- IC50 (second compound 3.16 µM): 0.141 µM
- IC50 (second compound 10 µM): 0.139 µM
- viability, T/C [31]: 110%
- viability, T/C [32]: 99.9%
- viability, T/C [33]: 58.8%
- viability, T/C [34]: 12.6%
- viability, T/C [35]: 1.17%
- viability, T/C [36]: 0.33%
- viability, T/C [37]: 105%
- viability, T/C [38]: 93.8%
- viability, T/C [39]: 70.2%
- viability, T/C [40]: 14.2%
- viability, T/C [41]: 1.51%
- viability, T/C [42]: 0.96%
- viability, T/C [43]: 87.7%
- viability, T/C [44]: 94.8%
- viability, T/C [45]: 59.4%
- viability, T/C [46]: 17%
- viability, T/C [47]: 1.08%
- viability, T/C [48]: 0.48%
- viability, T/C [49]: 112%
- viability, T/C [50]: 109%
- viability, T/C [51]: 68.9%
- viability, T/C [52]: 13.5%
- viability, T/C [53]: 0.24%
- viability, T/C [54]: 0.24%
- viability, T/C [55]: 94.7%
- viability, T/C [56]: 85.2%
- viability, T/C [57]: 67.2%
- viability, T/C [58]: 17%
- viability, T/C [59]: 0.59%
- viability, T/C [60]: 0.92%

SMILES: O=C(C=Cc1cccc(S(=O)(=O)Nc2ccccc2)c1)NO + NC1CCC(NC2CC2c2ccccc2)CC1
- IC50 (second compound 0.1 µM): 0.0782 µM
- IC50 (second compound 0.316 µM): 0.0835 µM
- IC50 (second compound 1 µM): 0.0832 µM
- IC50 (second compound 3.16 µM): 0.0778 µM
- IC50 (second compound 10 µM): 0.0576 µM
- viability, T/C [31]: 103%
- viability, T/C [32]: 88%
- viability, T/C [33]: 41.8%
- viability, T/C [34]: 10.5%
- viability, T/C [35]: 1.71%
- viability, T/C [36]: 0.44%
- viability, T/C [37]: 114%
- viability, T/C [38]: 93.5%
- viability, T/C [39]: 44.5%
- viability, T/C [40]: 10.6%
- viability, T/C [41]: 1.43%
- viability, T/C [42]: 0.17%
- viability, T/C [43]: 126%
- viability, T/C [44]: 89.5%
- viability, T/C [45]: 48.5%
- viability, T/C [46]: 9.18%
- viability, T/C [47]: 1.34%
- viability, T/C [48]: 0.11%
- viability, T/C [49]: 102%
- viability, T/C [50]: 86%
- viability, T/C [51]: 42.9%
- viability, T/C [52]: 8.17%
- viability, T/C [53]: 0.32%
- viability, T/C [54]: 0.12%
- viability, T/C [55]: 114%
- viability, T/C [56]: 77.3%
- viability, T/C [57]: 29.8%
- viability, T/C [58]: 4%
- viability, T/C [59]: 0.21%
- viability, T/C [60]: 0.19%
